Data set [1] relates to Botrytis cinerea. Briefly: Botrytis test (bean)/protective. It is filed as in vivo. The conditions noted are these: 48 h, young bean plants sprayed, size of infected areas two days after inoculation, read-out: Efficacy in %. On the procedure: (§1) To produce a suitable preparation of active compound, 1 part by weight of active compound is mixed with the stated amounts of solvents and emulsifier, and the concentrate is diluted with water to the desired concentration.
To test for protective activity, young plants are sprayed with the active compound preparation at the stated application rate. After the spray coating has dried on, two small pieces of agar colonized by Botrytis cinerea are placed onto each leaf. The inoculated plants are placed in a dark chamber at about 20° C. and 100% relative atmospheric humidity.
Two days after the inoculation, the size of the infected areas on the leaves is evaluated. 0% means an efficacy which corresponds to that of the control, whereas an efficacy of 100% means that no infection is observed.

The nature of data set [2]: logP determination by HPLC on a reverse-phase column (EEC Directive 79/831 Annex V.A8). It is filed as physicochemical. The conditions noted are these: reverse-phase C18 HPLC column; pH 2.3; HPLC reverse-phase C 18, 43° C., 0.1% aqueous phosphoric acid and acetonitrile. On the procedure: The determination is carried out in the acidic range at pH 2.3 using the mobile phases 0.1% aqueous phosphoric acid and acetonitrile; linear gradient from 10% acetonitrile to 90% acetonitrile.

Data set [3] relates to Sphaerotheca fuliginea. Briefly: Sphaerotheca test (cucumber)/protective. It is filed as in vivo. The settings on record: 500 ppm; young cucumber plants sprayed, inoculated one day after treatment; evaluation 7 days after inoculation. The protocol:
(§2) To produce a suitable preparation of active compound, 1 part by weight of active compound is mixed with the stated amounts of solvent and emulsifier, and the concentrate is diluted with water to the desired concentration.
To test for protective activity, young cucumber plants are sprayed with the active compound preparation at the stated application rate. One day after the treatment, the plants are inoculated with a spore suspension of Sphaerotheca fuliginea. The plants are then placed in a greenhouse at 70% relative atmospheric humidity and a temperature of 23° C.
(§3) Evaluation is carried out 7 days after the inoculation. 0% means an efficacy which corresponds to that of the control, whereas an efficacy of 100% means that no infection is observed.

For data set [4], the system named is Alternaria solani. Briefly: Alternaria test (tomato)/protective. It is filed as in vivo. The conditions noted are these: 168 h, young tomato plants sprayed, inoculated one day after treatment, evaluation 7 days after inoculation, read-out: Efficacy in %. On the procedure:
as §2
To test for protective activity, young tomato plants are sprayed with the active compound preparation at the stated application rate. One day after the treatment, the plants are inoculated with a spore suspension of Alternaria solani and then remain at 100% relative humidity and 20° C. for 24 h. The plants then remain at 96% relative atmospheric humidity and a temperature of 20° C.
as §3

The subject of data set [5] is Venturia inaequalis. Kind of data set: Venturia test (apple)/protective. It is filed as in vivo. The conditions noted are these: 100 ppm; young apple plants sprayed; evaluation 10 days after inoculation. On the procedure:
as §1
To test for protective activity, young plants are sprayed with the active compound preparation at the stated application rate. After the spray coating has dried on, the plants are inoculated with an aqueous conidia suspension of the apple scab pathogen Venturia inaequalis and then remain in an incubation cabin at about 20° C. and 100% relative atmospheric humidity for 1 day. The plants are then placed in a greenhouse at about 21° C. and a relative atmospheric humidity of about 90%.
(§4) Evaluation is carried out 10 days after the inoculation. 0% means an efficacy which corresponds to that of the control, whereas an efficacy of 100% means that no infection is observed.

Data set [6] deals with Pyrenophora teres. Kind of data set: Pyrenophora teres test (barley)/protective. It is filed as in vivo. The conditions noted are these: 1000 ppm; young barley plants sprayed; evaluation 8 days after inoculation. On the procedure: as §2
To test for protective activity, young plants are sprayed with the active compound preparation at the stated application rate. After the spray coating has dried on, the plants are sprayed with a conidia suspension of Pyrenophora teres. The plants remain in an incubation cabin at 20° C. and 100% relative atmospheric humidity for 48 hours. The plants are then placed in a greenhouse at a temperature of about 20° C. and a relative atmospheric humidity of about 80%.
Evaluation is carried out 8 days after the inoculation. 0% means an efficacy which corresponds to that of the control, whereas an efficacy of 100% means that no infection is observed.

Data set [7] deals with Podosphaera leucotricha. Briefly: Podosphaera test (apple)/protective. Format: in vivo. The conditions noted are these: 100 ppm; young apple plants sprayed; evaluation 10 days after inoculation. On the procedure:
as §1
To test for protective activity, young plants are sprayed with the active compound preparation at the stated application rate. After the spray coating has dried on, the plants are inoculated with an aqueous spore suspension of the apple mildew pathogen Podosphaera leucotricha. The plants are then placed in a greenhouse at about 23° C. and a relative atmospheric humidity of about 70%.
as §4

`Cc1nc(C(F)(F)F)c(C(=O)Nc2ncncc2-c2ccc(Cl)c(Cl)c2)s1` [drawing 99]: the pest or weed control at 500 ppm in data set [1] is 91%.
On to `O=C(Nc1ncncc1-c1ccc(OC(F)(F)F)cc1)c1ccccc1Cl` [drawing 106], for which, in data set [1], the pest or weed control at 500 ppm came to 79%.
In data set [2], `O=C(c1ccccc1Cl)N(C(=O)c1ccccc1Cl)c1ncncc1-c1ccc(Cl)c(Cl)c1` [Example 15] returned a chromatographic logP of 2.46.
In the case of `O=C(Nc1ncncc1-c1ccc(OC(F)(F)F)cc1)c1ccccc1I` [drawing 76], the Efficacy in % in data set [3] stood at 95%.
Regarding `O=C(c1ccccc1Cl)N(C(=O)c1ccccc1Cl)c1ncncc1-c1ccc(Br)cc1` [drawing 86], the pest or weed control at 500 ppm in data set [4] came out at 71%.
`O=C(Nc1ncncc1-c1ccc(Cl)c(Cl)c1)c1ccccc1C(F)(F)F` [drawing 98] registered an Efficacy in % in data set [5] of 95%.
Take `O=C(c1ccccc1Cl)N(C(=O)c1ccccc1Cl)c1ncncc1-c1ccc(Cl)c(Cl)c1` [drawing 87]: the pest or weed control at 500 ppm in data set [4] was 95%.
For the molecule `O=C(Nc1ncncc1-c1ccc(Br)cc1)c1ccccc1I` [Example 7], in data set [2], the chromatographic logP was 2.61.
Take `O=C(c1ccccc1Cl)N(C(=O)c1ccccc1Cl)c1ncncc1-c1ccc(OC(F)(F)F)cc1`: the pest or weed control at 500 ppm in data set [4] stood at 70%.
For the molecule `O=C(Nc1ncncc1-c1ccc(Br)cc1)c1ccccc1Cl` [drawing 102], in data set [1], the pest or weed control at 500 ppm came to 99%.
For the molecule `O=C(Nc1ncncc1-c1ccc(Br)cc1)c1ccccc1Cl` [drawing 81], the pest or weed control at 500 ppm in data set [4] is 100%.
For the molecule `O=C(Nc1ncncc1-c1ccc(Cl)c(Cl)c1)c1ccccc1I` [drawing 93], the Efficacy in % in data set [6] is 100%.
For `O=C(Nc1ncncc1-c1ccc(Cl)c(Cl)c1)c1ccccc1Cl` [Example 10], the chromatographic logP in data set [2] worked out at 2.73.
`Cn1cc(C(=O)Nc2ncncc2-c2ccc(Cl)c(Cl)c2)c(C(F)(F)F)n1` [Example 19] returned a chromatographic logP in data set [2] of 2.46.
Take `O=C(Nc1ncncc1-c1ccc(Cl)c(Cl)c1)c1ccccc1Cl` [drawing 82]: the pest or weed control at 500 ppm in data set [4] amounted to 100%.
`O=C(Nc1ncncc1-c1ccc(Cl)cc1)c1ccccc1C(F)(F)F` [Example 1, N-[5-(4-chlorophenyl)-4-pyrimidinyl]-2-(trifluoromethyl)benzamide]: the chromatographic logP in data set [2] stood at 2.57.
As for `O=C(Nc1ncncc1-c1ccc(Cl)c(Cl)c1)c1ccccc1I` [drawing 80], the pest or weed control at 500 ppm in data set [4] was determined as 100%.
Molecule `O=C(c1ccccc1Cl)N(C(=O)c1ccccc1Cl)c1ncncc1-c1ccc(Br)cc1` [Example 14] had a chromatographic logP in data set [2] of 2.73.
Take `O=C(Nc1ncncc1-c1ccc(OC(F)(F)F)cc1)c1ccccc1I` [drawing 83]: in data set [4], the pest or weed control at 500 ppm was 100%.
Take `O=C(Nc1ncncc1-c1ccc(OC(F)(F)F)cc1)c1ccccc1I` [drawing 104]: the pest or weed control at 500 ppm in data set [1] is 89%.
For the molecule `O=C(Nc1ncncc1-c1ccc(Cl)c(Cl)c1)c1ccccc1C(F)(F)F` [Example 6], in data set [2], the chromatographic logP was found to be 2.92.
Turning to `O=C(Nc1ncncc1-c1ccc(C(F)(F)F)cc1)c1ccccc1Cl` [drawing 85], the pest or weed control at 500 ppm in data set [4] is 100%.
As for `O=C(Nc1ncncc1-c1ccc(Cl)c(Cl)c1)c1ccccc1Cl` [drawing 103], the pest or weed control at 500 ppm in data set [1] turned out to be 91%.
With `O=C(Nc1ncncc1-c1ccc(Br)cc1)c1ccccc1I` [drawing 94], in data set [7], the Efficacy in % is 87%.
On to `O=C(c1ccccc1Cl)N(C(=O)c1ccccc1Cl)c1ncncc1-c1ccc(C(F)(F)F)cc1` [Example 12], for which the chromatographic logP in data set [2] was 4.12.
Take `O=C(Nc1ncncc1-c1ccc(Cl)c(Cl)c1)c1ccccc1Cl` [drawing 75]: in data set [3], the Efficacy in % stood at 90%.
As to `Cn1cc(C(=O)Nc2ncncc2-c2ccc(Cl)c(Cl)c2)c(C(F)(F)F)n1` [drawing 90], in data set [4], the pest or weed control at 500 ppm was determined as 95%.
In data set [2], `Nc1ncncc1-c1ccc(Cl)c(Cl)c1` [III-1, 5-(3,4-dichlorophenyl)-4-pyrimidinylamine] gave a chromatographic logP of 0.87.
Turning to `O=C(Nc1ncncc1-c1ccc(Cl)c(Cl)c1)c1ccccc1I` [Example 8], in data set [2], the chromatographic logP is 2.89.
Consider `O=C(Nc1ncncc1-c1ccc(Cl)c(Cl)c1)c1ccccc1I` [drawing 101], for which, in data set [1], the pest or weed control at 500 ppm is 96%.
In the case of `O=C(c1ccccc1Cl)N(C(=O)c1ccccc1Cl)c1ncncc1-c1ccc(C(F)(F)F)cc1` [drawing 84], the pest or weed control at 500 ppm in data set [4] was found to be 100%.
Turning to `O=C(Nc1ncncc1-c1ccc(Cl)c(Cl)c1)c1ccccc1I` [drawing 74], the Efficacy in % in data set [3] is listed as 100%.
On to `O=C(Nc1ncncc1-c1ccc(Cl)cc1)c1ccccc1C(F)(F)F` [drawing 78], for which the pest or weed control at 500 ppm in data set [4] amounted to 100%.
Take `Cc1nc(C(F)(F)F)c(C(=O)Nc2ncncc2-c2ccc(Cl)c(Cl)c2)s1` [drawing 97]: the Efficacy in % in data set [5] was found to be 95%.
On to `O=C(Nc1ncncc1-c1ccc(Br)cc1)c1ccccc1I` [drawing 73], for which the Efficacy in % in data set [3] is recorded as 95%.
Regarding `O=C(Nc1ncncc1-c1ccc(Br)cc1)c1ccccc1I` [drawing 92], the Efficacy in % in data set [6] stood at 89%.
`O=C(Nc1ncncc1-c1ccc(C(F)(F)F)cc1)c1ccccc1Cl` [drawing 96] registered an Efficacy in % in data set [7] of 93%.
Turning to `O=C(Nc1ncncc1-c1ccc(C(F)(F)F)cc1)c1ccccc1Cl` [drawing 105], the pest or weed control at 500 ppm in data set [1] was 100%.
`Cn1cc(C(=O)Nc2ncncc2-c2ccc(Cl)c(Cl)c2)c(C(F)(F)F)n1` [drawing 77] registered an Efficacy in % in data set [3] of 95%.
In data set [2], `O=C(Nc1ncncc1-c1ccc(C(F)(F)F)cc1)c1ccccc1Cl` [Example 13] had a chromatographic logP of 2.62.
Consider `O=C(Nc1ncncc1-c1ccc(Cl)c(Cl)c1)c1ccccc1C(F)(F)F` [drawing 100], for which the pest or weed control at 500 ppm in data set [1] was 80%.
With `Cc1nc(C(F)(F)F)c(C(=O)Nc2ncncc2-c2ccc(Cl)c(Cl)c2)s1` [Example 2, N-[5-(3,4-dichlorophenyl)-4-pyrimidinyl]-2-methyl-4-(trifluoromethyl)-1,3-thiazole-5-carboxamide], the chromatographic logP in data set [2] was found to be 2.85.
Regarding `O=C(Nc1ncncc1-c1ccc(OC(F)(F)F)cc1)c1ccccc1Cl` [drawing 89], in data set [4], the pest or weed control at 500 ppm was found to be 95%.
Consider `O=C(Nc1ncncc1-c1ccc(Br)cc1)c1ccccc1Cl` [Example 9], for which the chromatographic logP in data set [2] came out at 2.46.
`O=C(Nc1ncncc1-c1ccc(Cl)cc1)c1ccccc1C(F)(F)F` [drawing 72] returned an Efficacy in % in data set [3] of 78%.
For the molecule `Cc1ccsc1C(=O)Nc1ncncc1-c1ccc(OC(F)(F)F)cc1`, the pest or weed control at 500 ppm in data set [4] was 70%.
`O=C(Nc1ncncc1-c1ccc(Cl)c(Cl)c1)c1ccccc1I` [drawing 95] registered an Efficacy in % in data set [7] of 93%.
As to `O=C(Nc1ncncc1-c1ccc(Br)cc1)c1ccccc1I` [drawing 79], the pest or weed control at 500 ppm in data set [4] was 100%.

The term chromatographic logP denotes lipophilicity estimated from chromatographic retention. Read a low chromatographic logP as a more hydrophilic compound.
